Assay results: PubChem BioAssay AID206 (DTP/NCI, 2004)
Several values for one entry are separate records, joined by “and”; a condition that tells them apart may be missing. Equal entries are not always repeated. Records with an inconclusive call do not appear.

Tested on: nude mice, HT29 intrarenal xenograft, tumor weight T/C
Test: NCI In Vivo Anticancer Drug Screen. Data for tumor model HT29;CX-1 Human Adenocarcinoma (MER+) (intrarenal inoculation) in NU/NU Swiss (nude) mice
Conditions: endpoint: mean tumor weight change, higher = larger tumour
In short: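 Mice with transplanted tumors are dosed with compound while controls get vehicle only. Survival or tumor burden is then assessed per group, and the treated value is expressed relative to control.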

[1] = dose: 600.0 mg/kg/injection, schedule: Q04DX004 (sc), vehicle: Klucel (hydroxypropylcellulose) (HPC)
[2] = dose: 1200.0 mg/kg/injection, schedule: Q04DX004 (sc), vehicle: Klucel (hydroxypropylcellulose) (HPC)
[3] = dose: 300.0 mg/kg/injection, schedule: Q04DX004 (sc), vehicle: saline with Tween-80

SMILES: OCC1OC(n2cnc3c(NO)ncnc32)C(O)C1O (centres undefined)
- T/C (dose: 150.0 mg/kg/injection, schedule: Q04DX004 (sc), vehicle: Klucel (hydroxypropylcellulose) (HPC)): 47 % of control
- T/C (dose: 300.0 mg/kg/injection, schedule: Q04DX004 (sc), vehicle: Klucel (hydroxypropylcellulose) (HPC)): 46 % of control
- T/C [1]: 52 % of control
- T/C [2]: 28 % of control

SMILES: N=c1ccn2c(n1)OC1C(O)C(CO)OC12 (centres undefined)
- T/C (dose: 300.0 mg/kg/injection, schedule: Q04DX004 (sc), vehicle: saline): 50 % of control
- T/C (dose: 300.0 mg/kg/injection, schedule: Q04DX004 (sc), vehicle: suspension in saline): 105 % of control
- T/C (dose: 400.0 mg/kg/injection, schedule: Q04DX004 (sc), vehicle: saline): 98 % of control
- T/C (dose: 600.0 mg/kg/injection, schedule: Q04DX004 (sc), vehicle: saline): 60 % of control
- T/C (dose: 600.0 mg/kg/injection, schedule: Q04DX004 (sc), vehicle: suspension in saline): 66 % of control
- T/C (dose: 800.0 mg/kg/injection, schedule: Q04DX004 (sc), vehicle: saline): 31 % of control
- T/C (dose: 1200.0 mg/kg/injection, schedule: Q04DX004 (sc), vehicle: saline): 42 % of control
- T/C (dose: 1200.0 mg/kg/injection, schedule: Q04DX004 (sc), vehicle: suspension in saline): 38 % of control
- T/C (dose: 1600.0 mg/kg/injection, schedule: Q04DX004 (sc), vehicle: saline): 36 % of control
- T/C (dose: 2400.0 mg/kg/injection, schedule: Q04DX004 (sc), vehicle: suspension in saline): 42 % of control

SMILES: c1cc(OCC2CO2)ccc1OCC1CO1 (centres undefined)
- T/C (dose: 200.0 mg/kg/injection, schedule: Q04DX004 (sc), vehicle: saline with Tween-80): 79 % of control
- T/C (dose: 400.0 mg/kg/injection, schedule: Q04DX004 (sc), vehicle: saline with Tween-80): 106 % of control

SMILES: O=Cc1ccc([N+](=O)[O-])s1
- T/C (dose: 25.0 mg/kg/injection, schedule: Q01DX010 (sc), vehicle: saline with Tween-80): 166 % of control
- T/C (dose: 50.0 mg/kg/injection, schedule: Q01DX010 (sc), vehicle: saline with Tween-80): 176 % of control
- T/C (dose: 100.0 mg/kg/injection, schedule: Q01DX010 (sc), vehicle: saline with Tween-80): 97 % of control

SMILES: c1ccc([P+](c2ccccc2)(c2ccccc2)c2ccccc2)cc1
- T/C (dose: 5.0 mg/kg/injection, schedule: Q04DX004 (sc), vehicle: saline): 105 % of control
- T/C (dose: 10.0 mg/kg/injection, schedule: Q04DX004 (sc), vehicle: saline): 107 % of control
- T/C (dose: 20.0 mg/kg/injection, schedule: Q04DX004 (sc), vehicle: saline): 68 % of control

SMILES: CO[C@H](C(=O)[C@@H](O)[C@@H](C)O)[C@@H]1Cc2cc3cc(OC4CC(OC5CC(O)C(O)C(C)O5)C(O)C(C)O4)c(C)c(O)c3c(O)c2C(=O)[C@H]1OC1CC(OC2CC(OC3CC(C)(O)C(O)C(C)O3)C(O)C(C)O2)C(O)C(C)O1 (some centres undefined)
- T/C (dose: 0.25 mg/kg/injection, schedule: Q04DX004 (sc), vehicle: saline): 87 % of control
- T/C (dose: 0.5 mg/kg/injection, schedule: Q04DX004 (sc), vehicle: saline): 53 % of control
- T/C (dose: 1.0 mg/kg/injection, schedule: Q04DX004 (sc), vehicle: saline): 54 % of control
- T/C (dose: 2.0 mg/kg/injection, schedule: Q01DX010 (sc), vehicle: saline): -80 % of control
- T/C (dose: 2.0 mg/kg/injection, schedule: Q04DX004 (sc), vehicle: saline): 61 % of control

SMILES: CNC(=O)OCc1c(COC(=O)NC)c(-c2ccc(Cl)c(Cl)c2)n2c1Cc1ccccc1C2
- T/C (dose: 300.0 mg/kg/injection, schedule: Q04DX004 (sc), vehicle: distilled water + Tween-80): 109 % of control
- T/C (dose: 600.0 mg/kg/injection, schedule: Q04DX004 (sc), vehicle: distilled water + Tween-80): 119 % of control
- T/C (dose: 1200.0 mg/kg/injection, schedule: Q04DX004 (sc), vehicle: distilled water + Tween-80): 61 % of control
- T/C (dose: 2400.0 mg/kg/injection, schedule: Q04DX004 (sc), vehicle: distilled water + Tween-80): 65 % of control

SMILES: Nc1cc(Cl)c2[nH]cnc2n1
- T/C (dose: 100.0 mg/kg/injection, schedule: Q04DX004 (sc), vehicle: water): 160 % of control
- T/C (dose: 400.0 mg/kg/injection, schedule: Q04DX004 (sc), vehicle: water): 96 % of control

SMILES: O=S(=O)(c1ccccc1)N1CN2CCN(C2)C1
- T/C (dose: 225.0 mg/kg/injection, schedule: Q04DX004 (sc), vehicle: saline with Tween-80): 58 % of control
- T/C (dose: 450.0 mg/kg/injection, schedule: Q04DX004 (sc), vehicle: saline with Tween-80): 75 % of control
- T/C (dose: 900.0 mg/kg/injection, schedule: Q04DX004 (sc), vehicle: saline with Tween-80): 90 % of control

SMILES: NC(=O)/C=C/C(=O)c1c(Cl)cccc1Cl
- T/C (dose: 36.0 mg/kg/injection, schedule: Q04DX004 (sc), vehicle: saline with Tween-80): 52 % of control

SMILES: CN(Cc1cnc2nc(N)nc(N)c2n1)c1c(Cl)cc(C(=O)NC(CCC(=O)O)C(=O)O)cc1Cl (centres undefined)
- T/C (dose: 12.5 mg/kg/injection, schedule: Q01DX010 (sc), vehicle: Klucel (hydroxypropylcellulose) (HPC)): 166 % of control
- T/C (dose: 25.0 mg/kg/injection, schedule: Q01DX010 (sc), vehicle: Klucel (hydroxypropylcellulose) (HPC)): 86 % of control

SMILES: Cn1cnc([N+](=O)[O-])c1[Se]c1nc(N)nc2nc[nH]c12
- T/C (dose: 50.0 mg/kg/injection, schedule: Q01DX010 (sc), vehicle: water): 100 % of control

SMILES: ClCc1ccc2ccccc2n1
- T/C (dose: 75.0 mg/kg/injection, schedule: Q04DX004 (sc), vehicle: saline with Tween-80): 82 % of control
- T/C (dose: 150.0 mg/kg/injection, schedule: Q04DX004 (sc), vehicle: saline with Tween-80): 88 % of control
- T/C [3]: 86 % of control
- T/C (dose: 600.0 mg/kg/injection, schedule: Q04DX004 (sc), vehicle: saline with Tween-80): 53 % of control

SMILES: CSc1nc(=O)[nH]nc1SCc1ccccc1
- T/C (dose: 200.0 mg/kg/injection, schedule: Q04DX004 (sc), vehicle: Klucel (hydroxypropylcellulose) (HPC)): 76 % of control
- T/C (dose: 400.0 mg/kg/injection, schedule: Q04DX004 (sc), vehicle: Klucel (hydroxypropylcellulose) (HPC)): 56 % of control
- T/C (dose: 800.0 mg/kg/injection, schedule: Q04DX004 (sc), vehicle: Klucel (hydroxypropylcellulose) (HPC)): 90 % of control

SMILES: Cc1ccc(C2NC(=O)c3ccccc3N2)s1 (centres undefined)
- T/C [1]: 101 % of control
- T/C [2]: 95 % of control
- T/C (dose: 2400.0 mg/kg/injection, schedule: Q04DX004 (sc), vehicle: Klucel (hydroxypropylcellulose) (HPC)): 96 % of control
- T/C (dose: 4800.0 mg/kg/injection, schedule: Q04DX004 (sc), vehicle: Klucel (hydroxypropylcellulose) (HPC)): 92 % of control

SMILES: COc1cc2c(cc1O)N=C[C@@H]1CCC(O)N1C2=O (mixture of isomers)
- T/C (dose: 10.0 mg/kg/injection, schedule: Q04DX004 (sc), vehicle: suspension in saline): 64 % of control

SMILES: CCC1(O)CC2CN(CCc3c([nH]c4ccccc34)C(C(=O)OC)(c3cc4c(cc3OC)N(C)C3C(O)(C(=O)NCCSSCCNC(=O)C5(O)C(O)C6(CC)C=CCN7CCC8(c9cc(C%10(C(=O)OC)CC%11CN(CCc%12c%10[nH]c%10ccccc%12%10)CC(O)(CC)C%11)c(OC)cc9N(C)C58)C76)C(O)C5(CC)C=CCN6CCC43C65)C2)C1 (centres undefined)
- T/C (dose: 0.38 mg/kg/injection, schedule: Q04DX004 (sc), vehicle: suspension in saline): 85 % of control
- T/C (dose: 0.75 mg/kg/injection, schedule: Q04DX004 (sc), vehicle: saline): 39 % of control
- T/C (dose: 0.75 mg/kg/injection, schedule: Q04DX004 (sc), vehicle: suspension in saline): 84 % of control
- T/C (dose: 1.5 mg/kg/injection, schedule: Q04DX004 (sc), vehicle: saline): 22 % of control and 29 % of control
- T/C (dose: 1.5 mg/kg/injection, schedule: Q04DX004 (sc), vehicle: suspension in saline): 44 % of control
- T/C (dose: 3.0 mg/kg/injection, schedule: Q04DX004 (sc), vehicle: saline): -5 % of control
- T/C (dose: 3.0 mg/kg/injection, schedule: Q04DX004 (sc), vehicle: suspension in saline): 55 % of control
- T/C (dose: 6.0 mg/kg/injection, schedule: Q04DX004 (sc), vehicle: suspension in saline): 51 % of control

SMILES: CC(=S)NC(O)C(=O)c1ccccc1 (centres undefined)
- T/C [3]: 116 % of control

SMILES: CCN(Cc1ccc(Cl)c(Cl)c1)c1ccc2nc(N)nc(N)c2c1C
- T/C (dose: 9.38 mg/kg/injection, schedule: Q04DX004 (sc), vehicle: distilled water + Tween-80): 44 % of control
- T/C (dose: 18.75 mg/kg/injection, schedule: Q04DX004 (sc), vehicle: distilled water + Tween-80): 54 % of control
- T/C (dose: 37.5 mg/kg/injection, schedule: Q04DX004 (sc), vehicle: distilled water + Tween-80): 93 % of control
- T/C (dose: 75.0 mg/kg/injection, schedule: Q04DX004 (sc), vehicle: distilled water + Tween-80): 47 % of control

SMILES: CCCCCc1cc(/C=C2/N=C(c3ccc[nH]3)C=C2OC)[nH]c1C
- T/C (dose: 4.0 mg/kg/injection, schedule: Q04DX004 (sc), vehicle: saline with Tween-80): 81 % of control
- T/C (dose: 8.0 mg/kg/injection, schedule: Q04DX004 (sc), vehicle: saline with Tween-80): 68 % of control
- T/C (dose: 16.0 mg/kg/injection, schedule: Q04DX004 (sc), vehicle: saline with Tween-80): 55 % of control and 72 % of control
- T/C (dose: 32.0 mg/kg/injection, schedule: Q04DX004 (sc), vehicle: saline with Tween-80): 76 % of control
